In US9174951B2, “Glucose transporter inhibitors” (The Ohio State University Research Foundation, priority 2012, dated 2015):
pIC50: −log10 of the molar value.

What was measured:
[1] = tested on: LNCaP cells; experiment: [3H]2-DG glucose uptake assay in LNCaP cells; type: cell-based, human; conditions: for pIC50: Homo sapiens, LNCaP, Krebs-Ringer phosphate buffer, 37° C., 30 min of drug treatment, read-out: IC50 in blocking [3H]2-DG uptake into LNCaP cells; for inhibition of [3H]2-DG uptake into LNCaP cells (screening, in words): each at 5 μM, 30 min of exposure
Method: Screening of the focused compound library to identify lead glucose uptake inhibitors.
Glucose Uptake Assay. LNCaP cells were seeded in six-well plates (3×10^5 cells/well) for 24 h. […] The cells were lysed in […] lysis buffer (10 mM Tris-HCl pH 8.0, 0.1% SDS) and aliquots were taken for measurement of radioactivity using a scintillation counter (Beckman LS6500).

[2] = tested on: LNCaP cells; experiment: MTT cell viability assay, LNCaP; type: cell-based, human; conditions: Homo sapiens, LNCaP, 72 h, MTT, 10% FBS
Method: Cell Viability Assay. Cell viability was determined using the 3-(4,5-dimethylthiazol-2-yl)-2,5-diphenyltetrazolium bromide (MTT) assay. Cancer cells were seeded at 5000 cells/well and normal cells were seeded at 8000 cells/well in 96-well plates and incubated in 10% FBS-supplemented medium for 24 h. Cells were then treated with individual agents for 72 h. Drug-containing medium was replaced with medium containing MTT (0.5 mg/mL), followed by incubation at 37° C. for 1 h. After removal of medium, the reduced MTT dye in each well was solubilized in 100 μL of DMSO and absorbance at 570 nm was measured.
Compound 30 was evaluated for antiproliferative activity in panels of different human cancer cells lines, including those of prostate, breast and pancreatic cancers. In all experiments, cells were treated with a range of concentrations of Compound 30 in the presence of 10% fetal bovine serum (FBS). Cell viability was then determined after 72 h of treatment using the 3-(4,5-dimethylthiazol-2-yl)-2,5-diphenyltetrazolium bromide (MTT) assay. […] It is noteworthy that despite this high antiproliferative potency, normal human prostate epithelial cells (PrECs) were resistant to the cytotoxic effect of Compound 30 even at 10 μM.

Compound	pIC50 [1]	pIC50 [2]	inhibition of [3H]2-DG uptake into LNCaP cells (screening, in words) [1]
CC1(COc2ccc(CC3SC(=O)NC3=O)cc2)CCCCC1 (stereo not shown) [Compound 1, ciglitazone, reference compound]	4.11	4.22	–
O=C1SC(=Cc2ccc(O)c(C(F)(F)F)c2)C(=O)N1CC(CC(F)(F)F)CC(F)(F)F [Compound 28, 5-(4-Hydroxy-3-trifluoromethyl-benzylidene)-3-[4,4,4-trifluoro-2-(2,2,2-trifluoro-ethyl)-butyl]-thiazolidine-2,4-dione]	5.46	5.66	substantially improved potency relative to compound 5
O=C1SC(=Cc2ccc(O)c(C(F)(F)F)c2)C(=O)N1CC(F)(CC(F)(F)F)CC(F)(F)F [Compound 29, 5-(4-Hydroxy-3-trifluoromethyl-benzylidene)-3-[2,4,4,4-tetrafluoro-2-(2,2,2-trifluoro-ethyl)-butyl]-thiazolidine-2,4-dione]	–	–	substantially improved potency relative to compound 5
CC1(COc2ccc(/C=C3\SC(=O)NC3=O)cc2)CCCCC1 [Compound 2, (Z)-5-(4-[(1-methylcyclohexyl)methoxy]benzylidene)-thiazolidine-2,4-dione, reference compound]	4.28	4.55	–
CC1(CN2C(=O)S/C(=C\c3ccc(O)c(C(F)(F)F)c3)C2=O)CCCCC1 [Compound 4, (Z)-5-(4-hydroxy-3-(trifluoromethyl)benzylidene)-3-((1-methylcyclohexyl)methyl)thiazolidine-2,4-dione, reference compound]	5.05	5.22	–
